Measured values from US12077539B2, “Imidazole and triazole KRAS inhibitors” (Incyte Corporation, priority 2021, dated 2024).

Key:
KRAS G12D = KRAS G12D (Homo sapiens, UniProt P01116, G12D); assay: GDP-GTP exchange assay, KRAS G12D (bodipy-GDP/GppNHp, SOS1); format: biochemical; settings: bodipy-loaded KRAS G12D 2.5 nM, 4 hours incubation after GppNHp-SOS1; read-out: G12D_exchange (KRAS_G12D exchange assay IC50)
Protocol: The inhibitor potency of the exemplified compounds was determined in a fluorescence based guanine nucleotide exchange assay, which measures the exchange of bodipy-GDP (fluorescently labeled GDP) for GppNHp (Non-hydrolyzable GTP analog) to generate the active state of KRAS in the presence of SOS1 (guanine nucleotide exchange factor). Inhibitors were serially diluted in DMSO and a volume of 0.1 μL was transferred to the wells of a black low volume 384-well plate. 5 μL/well volume of bodipy-loaded KRAS G12C diluted to 5 nM in assay buffer (25 mM Hepes pH 7.5, 50 mM NaCl, 10 mM MgCl2 and 0.01% Brij-35) was added to the plate and pre-incubated with inhibitor for 2 hours at ambient temperature. Appropriate controls (enzyme with no inhibitor or with a G12C inhibitor (AMG-510)) were included on the plate. The exchange was initiated by the addition of a 5 μL/well volume containing 1 mM GppNHp and 300 nM SOS1 in assay buffer. The 10 μL/well reaction concentration of the bodipy-loaded KRAS G12C, GppNHp, and SOS1 were 2.5 nM, 500 uM, and 150 nM, respectively. The reaction plates were incubated at ambient temperature for 2 hours, a time estimated for complete GDP-GTP exchange in the absence of inhibitor. […] Fluorescence intensities were measured on a PheraStar plate reader instrument (BMG Labtech) with excitation at 485 nm and emission at 520 nm. […]

[1] = system: MIA PaCa-2 (KRAS G12C) cells; assay: Cellular pERK HTRF assay, KRAS_G12C pERK; format: cell-based; settings: Homo sapiens, 4 hours incubation, HTRF phospho-ERK 1/2, read-out: G12C_pERK (KRAS_G12C pERK assay IC50)
Protocol: MIA PaCa-2 (KRAS G12C; ATCC® CRL-1420), A427 (KRAS G12D; ATCC® HTB53), HPAF-II (KRAS G12D; ATCC® CRL-1997) and NCI-H838 (KRAS WT; ATCC® CRL-5844) cells are purchased from ATCC and maintained in RPMI 1640 media supplemented with 10% FBS (Gibco/Life Technologies). The cells are plated at 5000 cells per well (8 uL) into Greiner 384-well low volume, flat-bottom, tissue culture treated white plates and incubated overnight at 37° C., 5% CO2. The next morning, test compound stock solutions are diluted in media at 3× the final concentration, and 4 uL are added to the cells. The plate is mixed by gentle rotation for 30 seconds (250 rpm) at room temperature. The cells are incubated with the KRAS G12C and G12D compounds for 4 hours or 2 hours respectively at 37° C., 5% CO2.
4 uL of 4× lysis buffer with blocking reagent (1:25) (Cisbio) are added to each well and plates are rotated gently (300 rpm) for 30 minutes at room temperature. 4 uL per well of Cisbio anti Phospho-ERK 1/2 d2 is mixed with anti Phospho-ERK 1/2 Cryptate (1:1) are added to each well, mixed by rotation and incubated overnight in the dark at room temperature. Plates are read on the Pherastar plate reader at 665 nm and 620 nm wavelengths. IC50 determination is performed by fitting the curve of inhibitor percent inhibition versus the log of the inhibitor concentration using the GraphPad Prism 7 software.

KRAS G12C = KRAS G12C (Homo sapiens, UniProt P01116, G12C); assay: GDP-GTP exchange assay, KRAS G12C (bodipy-GDP/GppNHp, SOS1); format: biochemical; settings: bodipy-loaded KRAS G12C 2.5 nM, 2 hours pre-incubation, 2 hours exchange with GppNHp and SOS1; read-out: G12C_exchange (KRAS_G12C exchange assay IC50)
Sequence of KRAS G12C (P01116 1-188 isoform P01116-2 G12C): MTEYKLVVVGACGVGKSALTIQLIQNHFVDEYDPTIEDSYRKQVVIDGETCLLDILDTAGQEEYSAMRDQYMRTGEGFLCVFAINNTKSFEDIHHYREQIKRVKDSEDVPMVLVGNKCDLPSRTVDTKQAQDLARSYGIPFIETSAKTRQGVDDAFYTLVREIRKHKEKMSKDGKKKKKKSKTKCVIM
Protocol: The inhibitor potency of the exemplified compounds was determined in a fluorescence based guanine nucleotide exchange assay, which measures the exchange of bodipy-GDP (fluorescently labeled GDP) for GppNHp (Non-hydrolyzable GTP analog) to generate the active state of KRAS in the presence of SOS1 (guanine nucleotide exchange factor). Inhibitors were serially diluted in DMSO and a volume of 0.1 μL was transferred to the wells of a black low volume 384-well plate. 5 μL/well volume of bodipy-loaded KRAS G12C diluted to 5 nM in assay buffer (25 mM Hepes pH 7.5, 50 mM NaCl, 10 mM MgCl2 and 0.01% Brij-35) was added to the plate and pre-incubated with inhibitor for 2 hours at ambient temperature. Appropriate controls (enzyme with no inhibitor or with a G12C inhibitor (AMG-510)) were included on the plate. The exchange was initiated by the addition of a 5 μL/well volume containing 1 mM GppNHp and 300 nM SOS1 in assay buffer. The 10 μL/well reaction concentration of the bodipy-loaded KRAS G12C, GppNHp, and SOS1 were 2.5 nM, 500 uM, and 150 nM, respectively. The reaction plates were incubated at ambient temperature for 2 hours, a time estimated for complete GDP-GTP exchange in the absence of inhibitor. For the KRAS G12D and G12V mutants, similar guanine nucleotide exchange assays were used with 2.5 nM as final concentration for the bodipy loaded KRAS proteins and with 4 hours and 3 hours incubation after adding GppNHp-SOS1 mixture for G12D and G12V respectively. A cyclic peptide described to selectively bind G12D mutant (Sakamoto et al., BBRC 484.3 (2017), 605-611) or internal compounds with confirmed binding were used as positive controls in the assay plates. Fluorescence intensities were measured on a PheraStar plate reader instrument (BMG Labtech) with excitation at 485 nm and emission at 520 nm.
Either GraphPad prism or XLfit was used to analyze the data. The IC50 values were derived by fitting the data to a four parameter logistic equation producing a sigmoidal dose-response curve with a variable Hill coefficient. Prism equation: Y=Bottom+(Top−Bottom)/(1+10^((Log IC50−X)*Hill slope)); XLfit equation: Y=(A+((B−A)/(1+((X/C)^D)))) where X is the logarithm of inhibitor concentration and Y is the response.

Sequence of KRAS G12D (P01116 1-188 isoform P01116-2 G12D): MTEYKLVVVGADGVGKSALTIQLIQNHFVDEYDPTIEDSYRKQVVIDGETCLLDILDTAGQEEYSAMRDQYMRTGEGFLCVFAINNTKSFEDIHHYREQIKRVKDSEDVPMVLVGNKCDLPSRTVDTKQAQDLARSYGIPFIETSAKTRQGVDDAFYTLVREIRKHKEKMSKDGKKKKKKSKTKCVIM

SMILES	IC50 (KRAS G12D) [nM]	IC50 [1] [nM]	IC50 (KRAS G12C) [nM]
CNCCc1nc2c(N3CC(N(C)C)C3)nc3c(=O)n(-c4cc(O)cc5ccccc45)ccc3c2n1[C@H]1[C@H]2CN[C@@H]1C2 (racemic) [Example 3, 1-((1R,4R,5S)-2-azabicyclo[2.1.1]hexan-5-yl)-4-(3-(dimethylamino)azetidin-1-yl)-7-(3-hydroxynaphthalen-1-yl)-2-(2-(methylamino)ethyl)-1,7-dihydro-6H-imidazo[4,5-c][1,7]naphthyridin-6-one]	100 to 1000	–	–
CC#CC(=O)N1CC[C@H](n2cnc3c(N4CC(N(C)C)C4)nc4c(=O)n(-c5cc(O)cc6ccccc56)ccc4c32)C[C@H]1CC#N [Example 2, 2-((2S,4S)-1-(but-2-ynoyl)-4-(4-(3-(dimethylamino)azetidin-1-yl)-7-(3-hydroxynaphthalen-1-yl)-6-oxo-6,7-dihydro-1H-imidazo[4,5-c][1,7]naphthyridin-1-yl)piperidin-2-yl)acetonitrile]	–	1000 to 5000	≤ 100
C=CC(=O)N1CC[C@H](n2cnc3c(N4CC(N(C)C)C4)nc4c(c32)CCN(c2cccc3ccccc23)C4)C[C@H]1CC#N [Example 4, 2-((2S,4S)-1-acryloyl-4-(4-(3-(dimethylamino)azetidin-1-yl)-7-(naphthalen-1-yl)-6,7,8,9-tetrahydro-1H-imidazo[4,5-c][1,7]naphthyridin-1-yl)piperidin-2-yl)acetonitrile]	–	–	100 to 1000
C=CC(=O)N1CCC(n2cnc3c(-c4cccnc4C)nc4c(=O)n(-c5cccc6ccccc56)c(C(F)(F)F)cc4c32)C[C@H]1CC#N (stereo partly drawn) [Example 7, 2-((2S)-1-acryloyl-4-(4-(2-methylpyridin-3-yl)-7-(naphthalen-1-yl)-6-oxo-8-(trifluoromethyl)-6,7-dihydro-1H-imidazo[4,5-c][1,7]naphthyridin-1-yl)piperidin-2-yl)acetonitrile]	–	≤ 100	≤ 100
C=CC(=O)N1CC[C@H](n2cnc3c(O[C@@H](C)[C@@H]4CCCN4C)nc4c(=O)n(-c5cccc(Cl)c5C)c(C(F)(F)F)cc4c32)C[C@H]1CC#N [Example 8, 2-((2S,4S)-1-acryloyl-4-(7-(3-chloro-2-methylphenyl)-4-((S)-1-((S)-1-methylpyrrolidin-2-yl)ethoxy)-6-oxo-8-(trifluoromethyl)-6,7-dihydro-1H-imidazo[4,5-c][1,7]naphthyridin-1-yl)piperidin-2-yl)acetonitrile]	–	≤ 100	≤ 100
CC#CC(=O)N1CC[C@H](n2cnc3c(O[C@@H](C)[C@@H]4CCCN4C)nc4c(=O)n(-c5cccc(Cl)c5C)c(C(F)(F)F)cc4c32)C[C@H]1CC#N [Example 9, 2-((2S,4S)-1-(but-2-ynoyl)-4-(7-(3-chloro-2-methylphenyl)-4-((S)-1-((S)-1-methylpyrrolidin-2-yl)ethoxy)-6-oxo-8-(trifluoromethyl)-6,7-dihydro-1H-imidazo[4,5-c][1,7]naphthyridin-1-yl)piperidin-2-yl)acetonitrile]	–	≤ 100	≤ 100
C=CC(=O)N1CC[C@H](n2nnc3c(N4CC(C)(N(C)C)C4)nc4c(=O)n(-c5cccc(Cl)c5C)c(C(F)(F)F)cc4c32)C[C@H]1CC#N [Example 11, 2-((2S,4S)-1-acryloyl-4-(7-(3-chloro-2-methylphenyl)-4-(3-(dimethylamino)-3-methylazetidin-1-yl)-6-oxo-8-(trifluoromethyl)-6,7-dihydro-1H-[1,2,3]triazolo[4,5-c][1,7]naphthyridin-1-yl)piperidin-2-yl)acetonitrile]	–	≤ 100	≤ 100

More lines, now with the values ahead:

IC50 (KRAS G12D) [nM]	IC50 [1] [nM]	IC50 (KRAS G12C) [nM]	SMILES
–	1000 to 5000	≤ 100	C=CC(=O)N1CC[C@H](n2cnc3c(N4CC(N(C)C)C4)nc4c(=O)n(-c5cc(O)cc6ccccc56)ccc4c32)C[C@H]1CC#N [Example 1, 2-((2S,4S)-1-acryloyl-4-(4-(3-(dimethylamino)azetidin-1-yl)-7-(3-hydroxynaphthalen-1-yl)-6-oxo-6,7-dihydro-1H-imidazo[4,5-c][1,7]naphthyridin-1-yl)piperidin-2-yl)acetonitrile]
–	1000 to 5000	≤ 100	C=CC(=O)N1CC[C@H](n2cnc3c(N4CC(N(C)C)C4)nc4c(c32)CCN(c2cc(O)cc3ccccc23)C4)C[C@H]1CC#N [Example 5, 2-((2S,4S)-1-acryloyl-4-(4-(3-(dimethylamino)azetidin-1-yl)-7-(3-hydroxynaphthalen-1-yl)-6,7,8,9-tetrahydro-1H-imidazo[4,5-c][1,7]naphthyridin-1-yl)piperidin-2-yl)acetonitrile]
–	≤ 100	≤ 100	C=CC(=O)N1CC[C@H](n2cnc3c(N4CC(N(C)C)C4)nc4c(=O)n(-c5cccc6ccccc56)c(C(F)(F)F)cc4c32)C[C@H]1CC#N [Example 6, 2-((2S,4S)-1-acryloyl-4-(4-(3-(dimethylamino)azetidin-1-yl)-7-(naphthalen-1-yl)-6-oxo-8-(trifluoromethyl)-6,7-dihydro-1H-imidazo[4,5-c][1,7]naphthyridin-1-yl)piperidin-2-yl)acetonitrile]
–	100 to 1000	≤ 100	C=C(F)C(=O)N1CC[C@H](n2cnc3c(O[C@@H](C)[C@@H]4CCCN4C)nc4c(=O)n(-c5cccc(Cl)c5C)c(C(F)(F)F)cc4c32)C[C@H]1CC#N [Example 10, 2-((2S,4S)-4-(7-(3-chloro-2-methylphenyl)-4-((S)-1-((S)-1-methylpyrrolidin-2-yl)ethoxy)-6-oxo-8-(trifluoromethyl)-6,7-dihydro-1H-imidazo[4,5-c][1,7]naphthyridin-1-yl)-1-(2-fluoroacryloyl)piperidin-2-yl)acetonitrile]
–	≤ 100	≤ 100	Cc1c(Cl)cccc1-n1c(C(F)(F)F)cc2c(nc(N3CC(C)(N(C)C)C3)c3nnn([C@H]4CCN(C(=O)/C=C/CF)[C@H](CC#N)C4)c32)c1=O [Example 12, 2-((2S,4S)-4-(7-(3-chloro-2-methylphenyl)-4-(3-(dimethylamino)-3-methylazetidin-1-yl)-6-oxo-8-(trifluoromethyl)-6,7-dihydro-1H-[1,2,3]triazolo[4,5-c][1,7]naphthyridin-1-yl)-1-((E)-4-fluorobut-2-enoyl)piperidin-2-yl)acetonitrile]
